Ends that are not written are not given here.
What was measured:
Assay type in all cases: physicochemical
[1] = Solubility: concentration of AnxA1 in solution/supernatant by UV-VIS
Method: The concentration of AnxA1 was determined using UV-VIS spectroscopy using a Nanodrop 2000c from Thermo scientific and an extinction coefficient of A280^0.1%=1.64 ml mg^−1cm^−1.
Three samples of AnxA1 was prepared at pH 9 in Milli Q® water, 0.9% NaCl (154 mM) at concentrations 3.3, 1.6 and 0.8 mg/mL, respectively. pH was adjusted by addition of 0.1 M NaOH to each of the samples and the concentration determined after centrifugation using UV-VIS spectroscopy.
(§1) AnxA1 samples are dissolved in Milli Q® water or 5% mannitol in Milli Q® water to approximately 18 mg/mL and pH was adjusted using 1.0 M HCl and NaOH. After dissolution visual appearance was noted and a photograph was taken, see FIG. 6 and Table 4, and a sample was cleared by centrifugation and the concentration determined in the supernatant using UV-VIS spectroscopy.

[2] = Visual appearance of solution
[3] = Visual appearance of solution; remark: listed apart in the source
Method: The remainder of the peptide suspension was diluted to an assumed concentration of 5 mg/mL and 4*1 mL samples were adjusted to pH 2, 4, 6 and 8, (see FIG. 2). All 4 vials continued to be opaque indicating limited solubility.
Approximately 16 mg/mL AnxA1 was added to milliQ® water. The resulting pH was 7.5. pH was adjusted to pH 10 in one sample using 0.1 M NaOH and to pH 2 using 0.1 M HCl in another sample, according to table 3. The appearance of the solution was noted. At pH≥7.4 the solution was clear. At pH≤7.1>2.6 solutions where unclear. At pH≤2.6 the solution was again clear. Data are summarized the Table 3, see also FIG. 5.
as §1
Isotonic samples containing 1.5-1.6 mg/mL AnxA1 and a tonicity provider (isotonicity modifier) was prepared around neutral pH according to the specification in table 5. […] The samples were subjected to the ThT assay previously described, where a higher lag-time was observed when using sucrose and mannitol as tonicity providers compared to using trehalose and glucose. The data presented in Table 5 is illustrated graphically in FIG. 7.

- solubility thermodynamic ([1]; 0.9% NaCl (154 mM) in Milli Q water, saline or isotonic, 20 mg freeze-dried AnxA1 per mL 0.9% NaCl (154 mM) in Milli Q, neutral pH, over night at room temperature on rotation, spun down): ~170 µg/mL
- solubility (concentration A280 as a function of pH) ([1]; AnxA1 3.3, 1.6 and 0.8 mg/mL in MiliQ water, 0.9% NaCl (154 mM), below pH 6.0): very low
- solubility ([1]; saline at neutral pH around 7.3): poorly soluble
- appearance ([2]; 20 mg AnxA1 per mL 0.9% NaCl, neutral pH, after over night at room temperature on rotation): opaque gel like substance
- appearance ([2]; AnxA1 3.3, 1.6 and 0.8 mg/mL in Milli Q water, 0.9% NaCl (154 mM), at pH 6.0): opaque
- appearance ([2]; AnxA1 3.3, 1.6 and 0.8 mg/mL in Milli Q water, 0.9% NaCl (154 mM), immediately below pH 6.0): precipitated
- Visual appearance ([3]; AnxA1 1.5 mg/mL, glucose 5 wt.%, pH 7.1): Clear
- Visual appearance ([3]; AnxA1 1.6 mg/mL, mannitol 5 wt.%, pH 6.7): Clear
- Visual appearance ([3]; AnxA1 1.6 mg/mL, sucrose 10 wt.%, pH 7.2): Clear
- Visual appearance ([3]; AnxA1 1.6 mg/mL, trehalose 10 wt.%, pH 7.2): Clear
- Visual appearance ([3]; all isotonic samples, 1.5-1.6 mg/mL AnxA1 and a tonicity provider, around neutral pH): clear solutions
- Description (visual appearance) ([3]; approximately 16 mg/mL AnxA1 in milliQ water, pH 2.6-2.0): Clear solution
- Description (visual appearance) ([3]; approximately 16 mg/mL AnxA1 in milliQ water, pH 3.8-3.1): Starts clearing up
- Description (visual appearance) ([3]; approximately 16 mg/mL AnxA1 in milliQ water, pH 6.1-4.2): Gel-like
- Description (visual appearance) ([3]; approximately 16 mg/mL AnxA1 in milliQ water, pH 6.8-6.3): Milky, turbid
- Description (visual appearance) ([3]; approximately 16 mg/mL AnxA1 in milliQ water, pH 7.1): Fluffy particles
- Description (visual appearance) ([3]; approximately 16 mg/mL AnxA1 in milliQ water, pH ≥7.4): clear solution
- appearance of the solution ([3]; approximately 16 mg/mL AnxA1 in milliQ water, pH≤7.1>2.6): unclear
- Visual appearance ([3]; approximately 18 mg/mL AnxA1, pH 2, 4 and 6, with and without 5% mannitol in Milli Q water): unclear and or viscous solution
- Visual appearance ([3]; approximately 18 mg/mL AnxA1, pH 8 and 10, with and without 5% mannitol in Milli Q water): clear solution
- appearance ([3]; assumed 5 mg/mL AnxA1 in Milli Q water, 0.9% NaCl (154 mM), adjusted to pH 2, 4, 6 and 8): opaque
Substance: AMVSEFLKQAWFIENEEQEYVQTLKSSKGGPGSAVSPYPTFNPSSDV-NH2 [AnxA1]
